Data published in US20260207704A1, “STAPLED PEPTIDES AND METHODS THEREOF” (priority 2022, published 2026).
*1 amine or outer side, *2 acyl side, *3 side chain or, on linkers, in order; H or OH if unused. Bridges are numbered along the chain shown (N, C = ends). [ ]: non-standard residue; d: D form. PyrS2 = (S)-3-amino-1-((pent-4-en-1-yloxy)carbonyl)pyrrolidine-3-carboxylic acid, olefin staple residue, C=CCCCOC(=O)N1CC[C@@](N[*:1])(C(=O)[*:2])C1; Phe(3-COOH) = N[C@@H](Cc1cccc(C(=O)O)c1)C(=O)O; 2F3MeF = Cc1cccc(C[C@H](N[*:1])C(=O)[*:2])c1F; Bta = N[C@@H](Cc1csc2ccccc12)C(=O)O; αAllylPro = C=CC[C@@]1(C(=O)O)CCCN1; tBuAla = CC(C)(C)C[C@H](N)C(=O)O; B5 = not defined here

Experiments:
[1] = mouse plasma pharmacokinetics; format: in vivo; settings: single intraperitoneal (IP) dose at 100 mg/kg
Protocol: (B): Mouse plasma pharmacokinetics. […] Mouse single dose IP, 50 mg/kg.
Concentrations of agents in biological samples were measured by LC-MS/MS (Triple Quad 6500+). […] 8 uL of plasma or tissue lysate was used for LC method with mobile phase A (1% formic acid (FA, LS118-4, Fisher Scientific) in H2O) and mobile phase B (0.1% FA in ACN), 0.6 ml/min flow rate in Waters ACQUITY UPLC BEH C18 2.1*50 mm, 1.7 μm column. […] MS was conducted by electrospray ionization and multi reaction monitor scans. PK parameters such as plasma maximum concentration (Cmax), and AUC were analyzed by noncompartmental model 200 of Phoenix WinNonlin 8.3, using the linear/log trapezoidal method.

beta-catenin/TCF = format: cell-based; settings: COLO320DM cells
beta-catenin [2] = target: T1, beta-catenin (Homo sapiens, UniProt P35222); test: fluorescence polarization binding to beta-catenin; settings: read-out: beta-Catenin FP IC50
T1 sequence (P35222 1-781): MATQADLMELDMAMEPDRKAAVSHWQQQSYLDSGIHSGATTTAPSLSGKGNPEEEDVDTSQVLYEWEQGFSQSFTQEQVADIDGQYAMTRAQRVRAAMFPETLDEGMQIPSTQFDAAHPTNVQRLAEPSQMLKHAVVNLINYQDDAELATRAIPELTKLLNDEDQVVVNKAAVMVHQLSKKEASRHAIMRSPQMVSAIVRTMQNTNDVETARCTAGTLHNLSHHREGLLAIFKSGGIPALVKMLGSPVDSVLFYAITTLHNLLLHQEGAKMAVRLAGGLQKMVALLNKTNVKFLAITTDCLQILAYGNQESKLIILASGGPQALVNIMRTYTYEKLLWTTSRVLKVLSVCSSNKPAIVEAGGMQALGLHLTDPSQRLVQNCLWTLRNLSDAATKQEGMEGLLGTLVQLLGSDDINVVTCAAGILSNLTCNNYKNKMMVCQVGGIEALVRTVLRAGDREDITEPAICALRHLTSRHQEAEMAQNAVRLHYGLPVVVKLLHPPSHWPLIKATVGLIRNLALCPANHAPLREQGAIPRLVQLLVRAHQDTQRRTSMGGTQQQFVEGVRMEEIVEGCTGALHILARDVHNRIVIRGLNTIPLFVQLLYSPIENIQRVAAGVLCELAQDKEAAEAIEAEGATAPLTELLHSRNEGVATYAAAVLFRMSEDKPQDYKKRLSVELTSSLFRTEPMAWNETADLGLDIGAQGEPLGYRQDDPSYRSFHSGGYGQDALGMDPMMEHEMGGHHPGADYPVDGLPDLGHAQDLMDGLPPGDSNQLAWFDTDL
Protocol: In some embodiments, an EC50 is measured by fluorescence polarization as described in the Examples.
(§1) In some embodiments, solubility, shake flask LogD, and binding to beta-catenin were assessed.

beta-catenin/TCF4 = target: T2, beta-catenin/TCF4 (Homo sapiens, UniProt P35222); test: Nano-BRET target engagement assay (HEK293 cells); format: cell-based; settings: read-out: NanoBRET Abs IC50
T2 construct: expressed in transfected cells; host or cells: HEK293 cells
T2 sequence (P35222 1-781): T1 sequence (P35222 1-781)
Protocol: as §1
In some embodiments, capabilities of provided technologies, e.g., binding to beta-catenin and/or disrupt its interactions (or lack thereof) with various partners were assessed and confirmed in cells, e.g., using a NanoBRET based assay in HEK293 cells.

beta-catenin [3] = target: T3, beta-catenin (human, UniProt B6V8E6 146-665 (dog entry), limits assumed); test: cell-based or functional assay
T3 sequence: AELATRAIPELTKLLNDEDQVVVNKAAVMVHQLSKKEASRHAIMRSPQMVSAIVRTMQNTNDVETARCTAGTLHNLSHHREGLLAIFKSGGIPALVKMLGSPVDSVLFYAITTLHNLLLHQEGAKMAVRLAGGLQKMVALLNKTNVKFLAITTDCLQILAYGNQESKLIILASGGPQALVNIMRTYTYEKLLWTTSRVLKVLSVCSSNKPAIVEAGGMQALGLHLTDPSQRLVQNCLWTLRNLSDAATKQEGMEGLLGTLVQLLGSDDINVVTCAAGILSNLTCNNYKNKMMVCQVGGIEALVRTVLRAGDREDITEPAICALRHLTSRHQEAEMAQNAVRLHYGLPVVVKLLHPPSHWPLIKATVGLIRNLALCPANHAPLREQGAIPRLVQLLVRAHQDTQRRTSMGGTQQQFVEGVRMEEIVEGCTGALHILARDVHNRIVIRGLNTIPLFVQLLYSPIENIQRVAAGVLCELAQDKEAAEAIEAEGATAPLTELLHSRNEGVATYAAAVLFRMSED

## CC(=O)N1CCC[C@]12CC=CCCCC1(CCCC=CCCCOC(=O)N3CC[C@@]4(C3)NC(=O)[C@H](CCCCNC(=O)CC[C@@H](C(=O)N[C@@H](C)C(N)=O)NC(=O)[C@H](Cc3csc5ccccc35)NC(=O)[C@H](Cc3ccsc3)NC4=O)NC(=O)[C@H](Cc3ccccc3)NC(=O)[C@H](C)NC(=O)C(C)(C)NC(=O)[C@H](Cc3cccc(C(=O)O)c3)NC(=O)[C@H](CCC(=O)O)NC1=O)NC(=O)[C@H](CC(C)(C)C)NC(=O)[C@H](CCC(=O)O)NC2=O (relative stereo) [I-470, Ac-PL3-Glu-Npg-B5-Glu-3COOHF-Aib-Ala-Phe-Lys*3-PyrS2-3Thi-BztA-GlnR*3-Ala-NH2]
[1]
  plasma AUC: comparable plasma AUC
beta-catenin/TCF
  effect on expression level of AXIN2: no or very little or non-significant effect

## Ac-PL3-Asp-Npg-B5-Asp-4F3Me2COOHF-Aib-Ala-Phe-Lys*3-PyrS2-2F3MeF-BztA-GlnR*3-Ala-NH2 [I-205]
beta-catenin [2]
  IC50: < 0.05 µM
beta-catenin/TCF4
  IC50: 3 to 10 µM

## Ac-[αAllylPro]D[tBuAla][B5]D[Phe(3-COOH)]AAFL[PyrS2][2F3MeF][Bta]Q-NH2 (staple 1-4, 4-11; not fully specified; reading uncertain) [Peptide A]
beta-catenin [3]
  AXIN2 expression IC50, COLO320DM cells: 1.4 µM
  AXIN2 expression IC50, DLD1 cells: 9.3 µM
  SP5 expression IC50, DLD1 cells: 9 µM
